Experimental data published in patent US8404643B2, “Metastin derivatives and use thereof” (priority 2005, dated 2013).
Numbered stars: 1 amine (or outer) side, 2 acyl side, 3 side chain; on linkers, the order of the positions; unused ones are H or OH. Square brackets hold non-standard residues; d marks the D form. Peptide text beside a SMILES is read from it. * marks the point of attachment. Phe(3R-OH) = O=C([C@@H](N[*:1])[C@H](O[*:3])c1ccccc1)[*:2]; Phe(βS-OH) = N[C@H](C(=O)O)[C@@H](O)c1ccccc1; Pro(trans-4-F) = O=C(O)[C@@H]1C[C@@H](F)CN1; pY = N[C@@H](Cc1ccc(OP(=O)(O)O)cc1)C(=O)O; Phe(3-Me) = Cc1cccc(C[C@H](N)C(=O)O)c1; Phe(4-Me) = Cc1ccc(C[C@H](N)C(=O)O)cc1; Desaminotyrosyl = O=C(CCc1ccc(O)cc1)*; Phe(2-Me) = Cc1ccccc1C[C@H](N)C(=O)O; Arg(Me) = CNC(=N)NCCC[C@H](N)C(=O)O; cisHyp = O=C(O)[C@@H]1C[C@H](O)CN1; Hyp = O=C(O)[C@@H]1C[C@@H](O)CN1; αMeF = C[C@](N)(Cc1ccccc1)C(=O)O; Dab = NCC[C@H](N)C(=O)O; Nva = CCC[C@H](N)C(=O)O; azaGly = NNC(=O)O

Target: T1, hOT7T175 (Homo sapiens, UniProt Q969F8)
T1 construct: expressed in transfected cells
Test: Assay for intracellular Ca ion level-increasing activity using FLIPR
Assay type: cell-based
Details: hOT7T175/CHO cells, relative to Metastin (1-54)
How it was run: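 CHO/dhfr− cells stably transfected with hOT7T175, selected for high metastin response, loaded with Fluo3-AM for 1 h at 37 °C in HANKS/HBSS (pH 7.4) with probenecid. Peptides were diluted from 1×10^−3 M DMSO stock into HANKS/HBSS with 2.5 mM probenecid, 0.2% BSA, 0.1% CHAPS; intracellular Ca rise read by FLIPR.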

T1 sequence (Q969F8 whole entry L364H): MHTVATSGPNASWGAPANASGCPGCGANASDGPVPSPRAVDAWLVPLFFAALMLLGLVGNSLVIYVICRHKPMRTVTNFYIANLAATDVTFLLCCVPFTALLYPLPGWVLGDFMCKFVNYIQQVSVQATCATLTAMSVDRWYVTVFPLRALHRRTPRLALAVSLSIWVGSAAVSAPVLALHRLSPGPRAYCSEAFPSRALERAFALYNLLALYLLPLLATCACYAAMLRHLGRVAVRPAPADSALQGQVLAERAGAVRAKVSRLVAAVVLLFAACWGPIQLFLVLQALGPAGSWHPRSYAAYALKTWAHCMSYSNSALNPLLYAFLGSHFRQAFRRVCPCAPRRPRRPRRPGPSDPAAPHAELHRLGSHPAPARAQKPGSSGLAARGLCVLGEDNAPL

In order of falling “Specific Activity: intracellular Ca ion level-increasing activity [specific activity to Metastin (1-54)]” value:
1. Ac-D-Tyr-Aze(3)-Asn-Thr-Phe-AzaGly-Leu-Arg(Me)-Trp-NH2 [Compound No. 730]  4.1
2. Ac-D-Tyr-D-Trp-Asn-D-Pro-Phe-AzaGly-Leu-Arg(Me)-Trp-NH2 (Ac-[dY][dW]N[dP]F[azaGly]L[Arg(Me)]W-NH2; SMILES CNC(=N)NCCC[C@H](NC(=O)[C@H](CC(C)C)NC(=O)NNC(=O)[C@H](Cc1ccccc1)NC(=O)[C@H]1CCCN1C(=O)[C@H](CC(N)=O)NC(=O)[C@@H](Cc1c[nH]c2ccccc12)NC(=O)[C@@H](Cc1ccc(O)cc1)NC(C)=O)C(=O)N[C@@H](Cc1c[nH]c2ccccc12)C(N)=O) [Compound No. 719]  3.8
3. CNC(=N)NCCC[C@H](NC(=O)[C@H](CC(C)C)NC(=O)NNC(=O)[C@](C)(Cc1ccccc1)NC(=O)[C@@H](NC(=O)[C@H](CC(N)=O)NC(=O)[C@@H]1C[C@@H](O)CN1C(=O)[C@@H](Cc1ccc(O)cc1)NC(C)=O)[C@@H](C)O)C(=O)N[C@@H](Cc1c[nH]c2ccccc12)C(N)=O [Compound No. 868, Ac-D-Tyr-Hyp-Asn-Thr-αMePhe-AzaGly-Leu-Arg(Me)-Trp-NH2] (Ac-[dY][Hyp]NT[αMeF][azaGly]L[Arg(Me)]W-NH2)  1.4
4. Ac-D-Tyr-Tyr(PO3H2)-Asn-Thr-Phe-AzaGly-Leu-Arg(Me)-Trp-NH2 (Ac-[dY][pY]NTF[azaGly]L[Arg(Me)]W-NH2; SMILES CNC(=N)NCCC[C@H](NC(=O)[C@H](CC(C)C)NC(=O)NNC(=O)[C@H](Cc1ccccc1)NC(=O)[C@@H](NC(=O)[C@H](CC(N)=O)NC(=O)[C@H](Cc1ccc(OP(=O)(O)O)cc1)NC(=O)[C@@H](Cc1ccc(O)cc1)NC(C)=O)[C@@H](C)O)C(=O)N[C@@H](Cc1c[nH]c2ccccc12)C(N)=O) [Compound No. 775]  1.3
5. CCC[C@H](NC(=O)[C@@H]1C[C@@H](O)CN1C(=O)[C@@H](Cc1ccc(O)cc1)NC(C)=O)C(=O)N[C@H](C(=O)N[C@@H](Cc1ccccc1)C(=O)NNC(=O)N[C@@H](CC(C)C)C(=O)N[C@@H](CCCNC(=N)NC)C(=O)N[C@@H](Cc1c[nH]c2ccccc12)C(N)=O)[C@@H](C)O [Compound No. 886, Ac-D-Tyr-Hyp-Nva-Thr-Phe-AzaGly-Leu-Arg(Me)-Trp-NH2] (Ac-[dY][Hyp][Nva]TF[azaGly]L[Arg(Me)]W-NH2)  1.2
6. CNC(=N)NCCC[C@H](NC(=O)[C@H](CC(C)C)NC(=O)NNC(=O)[C@H](Cc1ccccc1)NC(=O)[C@@H](NC(=O)[C@H](CC(N)=O)NC(=O)[C@@H]1C[C@@H](O)CN1C(=O)CCc1ccc(O)cc1)[C@@H](C)O)C(=O)N[C@@H](Cc1c[nH]c2ccccc12)C(N)=O [Compound No. 888, 3-(p-Hydroxyphenyl)propionyl-Hyp-Asn-Thr-Phe-AzaGly-Leu-Arg(Me)-Trp-NH2] (Desaminotyrosyl-[Hyp]NTF[azaGly]L[Arg(Me)]W-NH2)  1.1
7. CNC(=N)NCCC[C@H](NC(=O)[C@H](CC(C)C)NC(=O)NNC(=O)[C@H](Cc1ccccc1)NC(=O)[C@@H](NC(=O)[C@H](CC(N)=O)NC(=O)[C@@H]1C[C@@H](O)CN1C(=O)[C@H](Cc1ccc(O)cc1)NC(C)=O)[C@@H](C)O)C(=O)N[C@@H](Cc1c[nH]c2ccccc12)C(N)=O [Compound No. 899, Ac-Tyr-Hyp-Asn-Thr-Phe-AzaGly-Leu-Arg(Me)-Trp-NH2] (Ac-Y[Hyp]NTF[azaGly]L[Arg(Me)]W-NH2)  1.1
8. CNC(=N)NCCC[C@H](NC(=O)[C@H](CC(C)C)NC(=O)NNC(=O)[C@H](Cc1ccccc1)NC(=O)[C@@H](NC(=O)[C@H](CCN)NC(=O)[C@@H]1C[C@@H](O)CN1C(=O)[C@@H](Cc1ccc(O)cc1)NC(C)=O)[C@@H](C)O)C(=O)N[C@@H](Cc1c[nH]c2ccccc12)C(N)=O [Compound No. 864, Ac-D-Tyr-Hyp-Dab-Thr-Phe-AzaGly-Leu-Arg(Me)-Trp-NH2] (Ac-[dY][Hyp][Dab]TF[azaGly]L[Arg(Me)]W-NH2)  1.0
9. CNC(=N)NCCC[C@H](NC(=O)[C@H](CC(C)C)NC(=O)NNC(=O)[C@@H](NC(=O)[C@@H](NC(=O)[C@H](CC(N)=O)NC(=O)[C@@H]1C[C@@H](O)CN1C(=O)[C@@H](Cc1ccc(O)cc1)NC(C)=O)[C@@H](C)O)[C@H](O)c1ccccc1)C(=O)N[C@@H](Cc1c[nH]c2ccccc12)C(N)=O [Compound No. 877, Ac-D-Tyr-Hyp-Asn-Thr-threo-Ser(3Phenyl)-AzaGly-Leu-Arg(Me)-Trp-NH2] (Ac-[dY][Hyp]NT[Phe(3R-OH)][azaGly]L[Arg(Me)]W-NH2)  1.0
10. CNC(=N)NCCC[C@H](NC(=O)[C@H](CC(C)C)NC(=O)NNC(=O)[C@H](Cc1ccc(C)cc1)NC(=O)[C@@H](NC(=O)[C@H](CC(N)=O)NC(=O)[C@@H]1C[C@@H](O)CN1C(=O)[C@@H](Cc1ccc(O)cc1)NC(C)=O)[C@@H](C)O)C(=O)N[C@@H](Cc1c[nH]c2ccccc12)C(N)=O [Compound No. 874, Ac-D-Tyr-Hyp-Asn-Thr-Phe(4Me)-AzaGly-Leu-Arg(Me)-Trp-NH2] (Ac-[dY][Hyp]NT[Phe(4-Me)][azaGly]L[Arg(Me)]W-NH2)  0.8
11. CNC(=N)NCCC[C@H](NC(=O)[C@H](CC(C)C)NC(=O)NNC(=O)[C@@H](NC(=O)[C@@H](NC(=O)[C@H](CC(N)=O)NC(=O)[C@@H]1C[C@@H](O)CN1C(=O)[C@@H](Cc1ccc(O)cc1)NC(C)=O)[C@@H](C)O)[C@@H](O)c1ccccc1)C(=O)N[C@@H](Cc1c[nH]c2ccccc12)C(N)=O [Compound No. 882, Ac-D-Tyr-Hyp-Asn-Thr-erythro-Ser(3Phenyl)-AzaGly-Leu-Arg(Me)-Trp-NH2] (Ac-[dY][Hyp]NT[Phe(βS-OH)][azaGly]L[Arg(Me)]W-NH2)  0.8
12. CNC(=N)NCCC[C@H](NC(=O)[C@H](CC(C)C)NC(=O)NNC(=O)[C@H](Cc1cccc(C)c1)NC(=O)[C@@H](NC(=O)[C@H](CC(N)=O)NC(=O)[C@@H]1C[C@@H](O)CN1C(=O)[C@@H](Cc1ccc(O)cc1)NC(C)=O)[C@@H](C)O)C(=O)N[C@@H](Cc1c[nH]c2ccccc12)C(N)=O [Compound No. 872, Ac-D-Tyr-Hyp-Asn-Thr-Phe(3Me)-AzaGly-Leu-Arg(Me)-Trp-NH2] (Ac-[dY][Hyp]NT[Phe(3-Me)][azaGly]L[Arg(Me)]W-NH2)  0.7
13. CNC(=N)NCCC[C@H](NC(=O)[C@H](CC(C)C)NC(=O)NNC(=O)[C@H](Cc1ccccc1)NC(=O)[C@@H](NC(=O)[C@H](CC(N)=O)NC(=O)[C@@H]1C[C@@H](F)CN1C(=O)[C@@H](Cc1ccc(O)cc1)NC(C)=O)[C@@H](C)O)C(=O)N[C@@H](Cc1c[nH]c2ccccc12)C(N)=O [Compound No. 897, Ac-D-Tyr-Pro(4F)-Asn-Thr-Phe-AzaGly-Leu-Arg(Me)-Trp-NH2] (Ac-[dY][Pro(trans-4-F)]NTF[azaGly]L[Arg(Me)]W-NH2)  0.7
14. CNC(=N)NCCC[C@H](NC(=O)[C@H](CC(C)C)NC(=O)NNC(=O)[C@H](Cc1ccccc1C)NC(=O)[C@@H](NC(=O)[C@H](CC(N)=O)NC(=O)[C@@H]1C[C@@H](O)CN1C(=O)[C@@H](Cc1ccc(O)cc1)NC(C)=O)[C@@H](C)O)C(=O)N[C@@H](Cc1c[nH]c2ccccc12)C(N)=O [Compound No. 870, Ac-D-Tyr-Hyp-Asn-Thr-Phe(2Me)-AzaGly-Leu-Arg(Me)-Trp-NH2] (Ac-[dY][Hyp]NT[Phe(2-Me)][azaGly]L[Arg(Me)]W-NH2)  0.6
15. CNC(=N)NCCC[C@H](NC(=O)[C@H](CC(C)C)NC(=O)NNC(=O)[C@H](Cc1ccccc1)NC(=O)[C@@H](NC(=O)[C@H](CC(N)=O)NC(=O)[C@@H]1C[C@H](O)CN1C(=O)[C@@H](Cc1ccc(O)cc1)NC(C)=O)[C@@H](C)O)C(=O)N[C@@H](Cc1c[nH]c2ccccc12)C(N)=O [Compound No. 896, Ac-D-Tyr-cisHyp-Asn-Thr-Phe-AzaGly-Leu-Arg(Me)-Trp-NH2] (Ac-[dY][cisHyp]NTF[azaGly]L[Arg(Me)]W-NH2)  0.6
